Consider 2 sequences from patent publication US11142560B2, “Biphasic single-chain insulin analogues” (Case Western Reserve University, priority 2014, dated 2021).

pKd: −log10 of the molar value. Bridge positions count the residues as written; N and C are the ends. Ends that are not written are not given here.

The assay has as its target A isoform of the insulin receptor (Homo sapiens, UniProt P06213). Put plainly: Receptor-binding assay, insulin receptor A isoform. As to conditions: two-site sequential model, read-out: equilibrium dissociation constant / binding constant. On the procedure: The receptor-binding affinities of SCI-57DP and SCI-57PE were determined in relation to wild-type human insulin. The assay employed the A isoform of the insulin receptor. […] The protocol for assay of receptor-binding activities was as follows. Microtiter strip plates (Nunc Maxisorb) were incubated overnight at 4° C. with AU5 IgG (100 μl/well of […] in phosphate-buffered saline). Binding data were analyzed by a two-site sequential model.

Chain of A isoform of the insulin receptor (P06213 28-746 isoform P06213-2 limits assumed): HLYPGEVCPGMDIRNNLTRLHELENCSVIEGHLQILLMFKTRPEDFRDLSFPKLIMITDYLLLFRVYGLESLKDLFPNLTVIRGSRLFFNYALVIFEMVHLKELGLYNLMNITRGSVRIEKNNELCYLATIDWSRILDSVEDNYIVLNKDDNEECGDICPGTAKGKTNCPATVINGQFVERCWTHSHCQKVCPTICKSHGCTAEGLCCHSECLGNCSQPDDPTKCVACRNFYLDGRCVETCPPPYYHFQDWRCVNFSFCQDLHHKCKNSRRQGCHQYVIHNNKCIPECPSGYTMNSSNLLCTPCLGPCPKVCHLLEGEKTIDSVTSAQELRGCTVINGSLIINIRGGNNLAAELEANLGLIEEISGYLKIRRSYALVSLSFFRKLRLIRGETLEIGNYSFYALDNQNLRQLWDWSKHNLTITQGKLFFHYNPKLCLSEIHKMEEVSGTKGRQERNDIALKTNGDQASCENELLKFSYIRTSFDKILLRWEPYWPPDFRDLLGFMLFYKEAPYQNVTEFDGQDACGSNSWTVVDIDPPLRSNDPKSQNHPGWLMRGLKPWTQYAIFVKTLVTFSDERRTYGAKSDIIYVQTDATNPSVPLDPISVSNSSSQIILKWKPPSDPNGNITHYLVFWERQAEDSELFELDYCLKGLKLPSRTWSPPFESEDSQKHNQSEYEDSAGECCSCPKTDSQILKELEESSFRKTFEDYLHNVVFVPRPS
Chain of A isoform of the insulin receptor (P06213 763-1382 partner limits assumed): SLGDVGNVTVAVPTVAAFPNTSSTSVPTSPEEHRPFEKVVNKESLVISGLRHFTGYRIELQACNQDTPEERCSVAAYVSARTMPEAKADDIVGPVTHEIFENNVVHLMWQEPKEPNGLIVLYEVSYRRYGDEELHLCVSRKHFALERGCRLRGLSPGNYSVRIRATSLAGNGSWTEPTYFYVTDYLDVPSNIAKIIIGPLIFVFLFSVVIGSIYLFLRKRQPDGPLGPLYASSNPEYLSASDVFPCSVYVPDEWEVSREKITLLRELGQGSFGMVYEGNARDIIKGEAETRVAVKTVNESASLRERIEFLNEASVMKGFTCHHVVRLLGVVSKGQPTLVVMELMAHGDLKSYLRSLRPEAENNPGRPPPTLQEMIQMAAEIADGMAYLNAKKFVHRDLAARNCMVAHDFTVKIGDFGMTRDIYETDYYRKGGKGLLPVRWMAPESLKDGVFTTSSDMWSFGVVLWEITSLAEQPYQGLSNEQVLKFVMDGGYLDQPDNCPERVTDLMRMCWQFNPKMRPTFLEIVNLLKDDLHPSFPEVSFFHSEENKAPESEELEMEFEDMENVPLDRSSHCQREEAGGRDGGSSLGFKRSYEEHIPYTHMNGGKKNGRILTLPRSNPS

As for “FVNQHLCGSHLVEALYLVCGERGFFYTDPTEEGPRRGIVEQCCHSICSLEQLENYCN (disulfide 7-43, 19-56, 42-47) [SCI-57DP]”, the pKd is 10.22. As for “FVNQHLCGSHLVEALYLVCGERGFFYTPETEEGPRRGIVEQCCHSICSLEQLENYCN (disulfide 7-43, 19-56, 42-47) [SCI-57PE]”, the pKd was 10.10.
